Source: patent US7705013B2, “Use of canthin-6-one, plant extracts containing same and derivatives thereof in the treatment of trypanosomiases” (Institut de Recherche pour le Developpement, priority 2002, dated 2010)

Key:
[1] = test system: Trypanosoma cruzi; test: In vivo trial on Trypanosoma cruzi in the acute phase, Balb/c mice: serological evaluation (anti-T. cruzi ELISA); conditions: for 1st serology (anti-T. cruzi ELISA, optical density): 40 days post-infection, 15 days post-treatment; for 2nd serology (anti-T. cruzi ELISA, optical density): 68 days post-infection, 45 days post-treatment
Excerpt: (§1) Animals and parasites: The Balb/c-type mice are bred in the animal house of the Health Sciences Research Institute (IICS, Asuncion, Paraguay) and are 6 to 8 weeks old at the time of the experimental protocols.
(§2) For these trials, the CL strain (Brener clone) of T. cruzi is used in the circulating form of the parasite (trypomastigotes). The animals are infected intraperitoneally with 5000 parasites; this strain produces its parasite peak 21 to 25 days after infection. Each week, the number of parasites is verified by means of a blood sample taken from the tail of the mouse.
(§3) Infection and treatment: The treatments with benznidazole, the reference medicinal product, and canthin-6-one begin 11 days after parasitic infection, at a rate of 50 mg/kg or 200 mM/kg for benznidazole and at the concentration of 5 mg/kg or 20 mM/kg for canthin-6-one. The duration of the treatments is fixed at two weeks and the chosen route of administration is oral for benznidazole and canthin-6-one; furthermore, a group of mice is treated with canthin-6-one administered subcutaneously. The untreated and infected mice are given 100 μl of a phosphate buffered saline solution.
(§4) • weekly counting of the number of parasites circulating in the peripheral blood throughout the experiment, i.e. 10 weeks; • observation of mortality; • two serological evaluations: 40 days post-infection, i.e. 15 days after treatment has been stopped, and 68 days post-infection, i.e. 45 days post-treatment. The serological evaluation is carried out by means of a Chagas ELISA assay (enzyme linked immunoassay) kit, IISC, Asuncion. The optical densities are measured with an ELISA plate reader (Titerek, Unistan, I).
(§5) Statistical studies: The mean and the standard deviations of each group are calculated, the differences between the groups are determined by means of the Student's test and the Kruskal-Wallis non-parametric analysis of variance test. The comparisons are carried out between the nontreated group and the treated groups, P<0.05.

[2] = test system: Trypanosoma cruzi; test: In vivo trial on Trypanosoma cruzi in the chronic phase, Balb/c mice: parasitemia and mortality
Excerpt: (§6) The Balb/c-type mice are bred in the animal house of the Health Sciences Research Institute (IICS, Asuncion, Paraguay) and are 6 to 8 weeks old at the time of the experimental protocols. For this experimental protocol, the CL strain (Brener clone) of T. cruzi is used in the circulating form (trypomastigotes), and the strain is maintained in routine culture on an animal model by passage every 14 days. The animals are infected intraperitoneally with 1000 parasites. Under these experimental conditions, the parasites develop slowly; this strain produces a parasite peak 21 to 28 days after infection. The majority of the mice survive (70-80%) with slight deterioration of their general physical condition and with absent or subpatent parasitemia. Each week, the number of parasites is verified by taking a blood sample from the tail of the mouse.
[…] The mice are then divided up into groups randomly. The treatments with benznidazole, the reference medicinal product, are administered at a concentration of 50 mg/kg or 200 mM/kg per day for 20 days, orally. Canthin-6-one is administered either orally or subcutaneously at a concentration of 5 mg/kg or 20 mM/kg per day for 20 days. A total dichloromethane extract of Zanthoxylum chiloperone var. angustifolium trunk bark is administered orally or subcutaneously at a concentration of 50 mg/kg per day for 20 days. For administration, the active principles are dissolved in 50 μl of a phosphate buffered saline (PBS) solution. The untreated and infected mice receive 50 μl of PBS.
• Weekly counting of the number of parasites circulating in the peripheral blood throughout the experiment, i.e. 30 weeks. • Observation of mortality. • Three serological evaluations, 45 days before the beginning of treatments, 10 days after treatment has stopped and 75 days post-treatment. The serological evaluation is carried out using a Chagas ELISA assay (enzyme linked immunoassay) kit, IISC, Asuncion. The optical densities are measured with an ELISA plate reader (Titerek, Unistan, I). Statistical Studies:
(§7) The mean and the standard deviations of each group are calculated, and the differences between the groups are determined by means of the Student's test and the Kruskal-Wallis non-parametric analysis of variance test. The comparisons are carried out between the untreated group and the treated groups, P<0.05.

[3] = test system: Trypanosoma cruzi; test: In vivo trial on Trypanosoma cruzi in the acute phase, Balb/c mice: parasitological evaluation (parasites in peripheral blood)
Excerpt: as §1, §2, §3, §4, §5

[4] = test system: Trypanosoma cruzi; test: In vivo trial on Trypanosoma cruzi in the chronic phase, Balb/c mice: serological evaluation (ELISA)
Excerpt: as §6
For this long-duration experiment, the treatments begin 120 days after parasitic infection, when the parasitemia is subpatent in all the mice. The mice are then divided up into groups randomly. The treatments with benznidazole, the reference medicinal product, are administered at a concentration of 50 mg/kg or 200 mM/kg per day for 20 days, orally. Canthin-6-one is administered either orally or subcutaneously at a concentration of 5 mg/kg or 20 mM/kg per day for 20 days. A total dichloromethane extract of Zanthoxylum chiloperone var. angustifolium trunk bark is administered orally or subcutaneously at a concentration of 50 mg/kg per day for 20 days. For administration, the active principles are dissolved in 50 μl of a phosphate buffered saline (PBS) solution. The untreated and infected mice receive 50 μl of PBS.
• Weekly counting of the number of parasites circulating in the peripheral blood throughout the experiment, i.e. […] The serological evaluation is carried out using a Chagas ELISA assay (enzyme linked immunoassay) kit, IISC, Asuncion. The optical densities are measured with an ELISA plate reader (Titerek, Unistan, I). Statistical Studies:
as §7

With O=c1ccc2nccc3c4ccccc4n1c23 [canthin-6-one] the “1st serology (anti-T. cruzi ELISA, optical density)” value ([1]; 5 mg SC) was 0.2151 ± 0.1447, the “1st serology (anti-T. cruzi ELISA, optical density)” value ([1]; 5 mg oral) was 0.1105 ± 0.0387 and the “2nd serology (anti-T. cruzi ELISA, optical density)” value ([1]; 5 mg SC) was 0.1347 ± 0.6327. For the same molecule, the “2nd serology (anti-T. cruzi ELISA, optical density)” value ([1]; 5 mg oral) was 0.3953 ± 0.7531, the “Negative parasitemia/number of surviving mice” value (“Negative parasitemia/number” for short) ([2]; 0 days post-treatment, 5 mg/kg orally for 20 days) was 7/8 and the “Negative parasitemia/number” value ([2]; 0 days post-treatment, 5 mg/kg/d subcutaneously for 20 days) was 6/8. For the same molecule, the “Negative parasitemia/number” value ([2]; 10 d post-treatment, 5 mg/kg orally for 20 days) was 7/8, the “Negative parasitemia/number” value ([2]; 10 d post-treatment, 5 mg/kg/d subcutaneously for 20 days) was 7/8 and the “Negative parasitemia/number” value ([2]; 40 d post-treatment, 5 mg/kg orally for 20 days) was 8/8. For the same molecule, the “Negative parasitemia/number” value ([2]; 40 d post-treatment, 5 mg/kg/d subcutaneously for 20 days) was 6/8, the “Negative parasitemia/number” value ([2]; 60 d post-treatment, 5 mg/kg orally for 20 days) was 8/8 and the “Negative parasitemia/number” value ([2]; 60 d post-treatment, 5 mg/kg/d subcutaneously for 20 days) was 6/8. For the same molecule, the “eradication of Trypanosoma cruzi from the infected organism, chronic phase” value ([2]; orally 5 mg/kg/d for 20 days) was “complete eradication of Trypanosoma cruzi from the infected organism”, the “protection of the mice against death, chronic phase” value ([2]; orally 5 mg/kg/d for 20 days) was “protects the mice against death” and the “activity compared with benznidazole (50 mg/kg/d), chronic phase” value ([2]; orally 5 mg/kg/d for 20 days from the 108th day after parasitic infection, 79 days after the end of the treatment) was “greater activity than benznidazole”. For the same molecule, the “effective dose against Trypanosoma cruzi relative to benznidazole” value ([3]; activity assays, general statement) was “doses ten times lower than the doses at which benznidazole is effective”, the “number of parasites ± standard deviation” value ([3]; day 4 post-infection (before treatment), 5 mg/kg oral, two weeks from day 11, n = 7) was 0 and the “number of parasites ± standard deviation” value ([3]; day 4 post-infection (before treatment), 5 mg/kg subcutaneous, two weeks from day 11, n = 8) was 0. For the same molecule, the “number of parasites ± standard deviation” value ([3]; day 11 post-infection (period of treatment), 5 mg/kg oral, n = 7) was 0, the “number of parasites ± standard deviation” value ([3]; day 11 post-infection (period of treatment), 5 mg/kg subcutaneous, n = 8) was 0 and the “number of parasites ± standard deviation” value ([3]; day 18 post-infection (period of treatment), 5 mg/kg oral, n = 7) was 285 ± 515.9. For the same molecule, the “number of parasites ± standard deviation” value ([3]; day 18 post-infection (period of treatment), 5 mg/kg subcutaneous, n = 8) was 766.3 ± 719.2, the “number of parasites ± standard deviation” value ([3]; day 25 post-infection (period of treatment), 5 mg/kg oral, n = 7) was 402 ± 837.7 and the “number of parasites ± standard deviation” value ([3]; day 25 post-infection (period of treatment), 5 mg/kg subcutaneous, n = 8) was 88.4 ± 142.9. For the same molecule, the “number of parasites ± standard deviation” value ([3]; day 32 post-infection, 5 mg/kg oral, two weeks from day 11, n = 7) was 426.2 ± 664.5, the “number of parasites ± standard deviation” value ([3]; day 32 post-infection, 5 mg/kg subcutaneous, two weeks from day 11, n = 8) was 267.5 ± 546.5 and the “number of parasites ± standard deviation” value ([3]; day 39 post-infection, 5 mg/kg oral, two weeks from day 11, n = 7) was 36.6 ± 58.4. For the same molecule, the “number of parasites ± standard deviation” value ([3]; day 39 post-infection, 5 mg/kg subcutaneous, two weeks from day 11, n = 8) was 2077.1 ± 2214.2, the “number of parasites ± standard deviation” value ([3]; day 45 post-infection, 5 mg/kg oral, two weeks from day 11, n = 7) was 34.4 ± 76.9 and the “number of parasites ± standard deviation” value ([3]; day 45 post-infection, 5 mg/kg subcutaneous, two weeks from day 11, n = 8) was 314.1 ± 499.3. The “number of parasites ± standard deviation” value ([3]; day 53 post-infection, 5 mg/kg oral, two weeks from day 11, n = 7) was 58.4 ± 80.6, the “number of parasites ± standard deviation” value ([3]; day 53 post-infection, 5 mg/kg subcutaneous, two weeks from day 11, n = 8) was 473.4 ± 921.9 and the “number of parasites ± standard deviation” value ([3]; day 60 post-infection, 5 mg/kg oral, two weeks from day 11, n = 7) was 16 ± 35.8. For the same molecule, the “number of parasites ± standard deviation” value ([3]; day 60 post-infection, 5 mg/kg subcutaneous, two weeks from day 11, n = 8) was 129.9 ± 194.4, the “number of parasites ± standard deviation” value ([3]; day 68 post-infection, 5 mg/kg oral, two weeks from day 11, n = 7) was 0 and the “number of parasites ± standard deviation” value ([3]; day 68 post-infection, 5 mg/kg subcutaneous, two weeks from day 11, n = 8) was 34.9 ± 98.6. For the same molecule, the “eradication of Trypanosoma cruzi from the infected organism, acute phase” value ([3]; orally 5 mg/kg/d) was “complete eradication of Trypanosoma cruzi from the infected organism”, the “activity compared with benznidazole (50 mg/kg/d), acute phase” value ([3]; orally 5 mg/kg/d, from the 39th day after infestation, 15 days after the end of treatment) was “activity that is much greater than the benznidazole” and the “ELISA (optical density ± standard deviation)” value ([4]; 10 d post-treatment, 5 mg/kg orally) was 1.621 ± 0.547. The “ELISA (optical density ± standard deviation)” value ([4]; 10 d post-treatment, 5 mg/kg/d subcutaneously) was 1.850 ± 0.405, the “ELISA (optical density ± standard deviation)” value ([4]; 43 days before treatment (baseline), 5 mg/kg orally) was 1.878 ± 0.348 and the “ELISA (optical density ± standard deviation)” value ([4]; 43 days before treatment (baseline), 5 mg/kg/d subcutaneously) was 1.916 ± 0.368. For the same molecule, the “ELISA (optical density ± standard deviation)” value ([4]; 75 d post-treatment, 5 mg/kg orally) was 1.799 ± 0.333 and the “ELISA (optical density ± standard deviation)” value ([4]; 75 d post-treatment, 5 mg/kg/d subcutaneously) was 1.870 ± 0.268.
